# Data: article PMC9775153, “Portability of a Small-Molecule Binding Site between Disordered Proteins” (Biomolecules, 2022)
# Like-named read-outs stand apart in the source and are kept apart here.
# How the values were obtained:
# [1] = target: T1, Myc353–437 (Homo sapiens, UniProt P01106); assay: Equimolar tyrosine fluorescence quenching titration; details: equimolar Myc353–437 and 34RH, 1x PBS, 25 °C, pH 7.4; 1:1 binding model
# T1 construct: 6xHis tag + TEV site (N, cleaved yes); made in house; host or cells: E. coli BL21(DE3) pLysS
# T1 sequence (P01106 368-452): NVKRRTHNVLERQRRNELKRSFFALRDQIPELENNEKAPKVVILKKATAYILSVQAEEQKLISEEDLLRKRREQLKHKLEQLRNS
# Method: 5 x 1 05 y = m 1 * x/ ( m 2 + x)
# Wavel ength (nm ) [34Rh] µM
# Fig S5. Equimolar Myc353-437 and 34RH interaction monitored via tyrosine fluorescence quenching. (A) 50 µM Myc353-437 in the presence (filled black squares) and absence (open black squares) equimolar 34RH in 1x PBS at 25 ℃, pH 7.4. (B) Equilibrium quenching of […]
# µM. Error bars represent the standard error of three independent trials. Representative fluorescence signals were inner filter corrected to account for any fluorescence suppression due the absorbance of protein and 34RH [46]. The quenching data was fitted to a binding model shown below described in Dobrev et al.
# Fraction Quenched = Q!"# × $
# Here, Qmax is the fraction quenched for the formation of the complete complex between Myc353-437 and 34RH. [C]tot is the total concentration of Myc353-437 or 34RH and KD the dissociation constant.
# [2] = target: T2, Myc402–412 peptide (Homo sapiens, UniProt P01106); assay: Circular dichroism with and without small molecule; details: 2.5 µM Myc402–412 peptide, 50 µM 34RH
# T2 construct: purchased Genscript; host or cells: solid phase peptide synthesis
# Method: (§1) Samples containing Myc353–437, Myc402–412 peptide, MaxRH, Max isoforms, or mutants in the absence and presence of excess concentrations of 34RH were prepared in 1xCD buffer (50 mM KF, 4.3 mM NaH2PO4, 1.4 mM KH2PO4, 5% ethanol). The pH of the buffer was adjusted to either 6 or 7.4 depending on the experiment conducted. The compound was delivered from a 1 mM ethanol stock solution. Samples were incubated for 1 hr before measurement. The far UV-spectra of the proteins and peptide were recorded in a quartz cuvette with a path length of 0.1 cm using a Jasco J720 spectropolarimeter. The samples were scanned from 270 to 195 nm with an increment of 1 nm, constant bandwidth of 10 nm, and a scanning speed of 1 nm per minute. After subtracting the buffer signal, the raw data in millidegrees was converted to mean residue ellipticity (MRE).
# [3] = Imide pKa determination by UV/Vis; type: physicochemical; details: 1xPBS at various pH values; UV/Vis absorbance at 327 nm, 10 µM 34RH in 1xPBS; read-out: pKa of the imide group of the rhodanine heterocycle
# Method: The imide pKa of 34RH was determined using UV/Vis by measuring the absorbance of 10 µM of 34RH in 1xPBS at various pH values using an Agilent 8453 UV/Vis spectrophotometer (Figure S2). The absorbance at 327 nm for each pH value was fit to a curve using the Henderson-Hasselbalch (shown in Equations (1) and (2)), where c is the pKa, x is the pH, a is the signal for the fully protonated acid, and b is the signal for the fully ionized base. (1) pKa−pH=log acid/base (2) y=a+b∗10^c−x/1+10^c−x
# [4] = target: T1, Myc353–437; assay: Circular dichroism with and without 34RH; details: 2.5 µM Myc353–437, 50 µM 34RH
# Method: as §1
# [5] = target: T3, MaxRH (Homo sapiens, UniProt P61244, K77E/M74V/Q72L/R75Q/R76A/Y73S); assay: Circular dichroism with and without 34RH; details: 1 µM MaxRH, 50 µM 34RH
# T3 construct: 6xHis tag + TEV site (N, cleaved yes); made in house; host or cells: E. coli BL21(DE3) pLysS
# T3 sequence (P61244 whole entry Q72L/Y73S/M74V/R75Q/R76A/K77E): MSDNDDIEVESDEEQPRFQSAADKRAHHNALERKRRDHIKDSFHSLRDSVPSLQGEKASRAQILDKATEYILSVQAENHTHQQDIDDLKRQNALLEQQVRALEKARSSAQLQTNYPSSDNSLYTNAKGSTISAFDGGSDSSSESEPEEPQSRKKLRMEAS
# Method: as §1
# [6] = target: T4, MaxRH-Y115F/Y123F (Homo sapiens, UniProt P61244, K77E/M74V/Q72L/R75Q/R76A/Y115F/Y123F/Y73S); assay: Circular dichroism with and without 34RH; details: 1 µM MaxRH-Y115F/Y123F, 50 µM 34RH
# T4 construct: 6xHis tag + TEV site (N, cleaved yes); made in house; host or cells: E. coli BL21(DE3) pLysS
# T4 sequence (P61244 whole entry Q72L/Y73S/M74V/R75Q/R76A/K77E/Y115F/Y123F): as the sequence (P61244 whole entry Q72L/Y73S/M74V/R75Q/R76A/K77E) above, with Y115F, Y123F counted along it
# Method: as §1
# [7] = target: T5, P22 Max (Homo sapiens, UniProt P61244); assay: Circular dichroism with and without 34RH; details: 1 µM P22 Max, 50 µM 34RH, pH 7.4
# T5 construct: 6xHis tag + TEV site (N, cleaved yes); made in house; host or cells: E. coli BL21(DE3) pLysS
# T5 sequence (P61244 whole entry): as the sequence (P61244 whole entry Q72L/Y73S/M74V/R75Q/R76A/K77E) above, with L72Q, S73Y, V74M, Q75R, A76R, E77K counted along it
# Method: as §1
# [8] = target: T6, P21 Max (Homo sapiens, UniProt P61244); assay: Circular dichroism with and without 34RH; details: 4 µM P21 Max, 50 µM 34RH, pH 7.4
# T6 construct: 6xHis tag + TEV site (N, cleaved yes); made in house; host or cells: E. coli BL21(DE3) pLysS
# T6 sequence (P61244 1-151 isoform P61244-2): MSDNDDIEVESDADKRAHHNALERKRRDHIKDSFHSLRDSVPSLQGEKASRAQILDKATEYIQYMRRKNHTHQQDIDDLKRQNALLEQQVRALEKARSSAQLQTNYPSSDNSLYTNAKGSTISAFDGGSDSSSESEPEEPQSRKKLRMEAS
# Method: as §1
# [9] = target: T1, Myc353–437; assay: Tyrosine fluorescence quenching titration, excess 34RH; details: 1 µM Myc353–437, excess 34RH, 1xPBS, 25 °C, pH 7.4; Langmuir binding isotherm; read-out: dissociation constant (KD)
# Method: (§2) The lyophilized protein (or peptide) was reconstituted in ultrapure water and incubated to room temperature for at least 1 hr. The protein or peptide was then sterile filtered using a pre-wet 0.2 μm polyethylene sulfone (PES) filter (VWR), and the concentration was determined by the absorbance at 274 nm using the extinction coefficient per tyrosine of ε274 = 1470 M^−1cm^−1. The final stock concentrations ranged from 50 to 100 μM.
# For excess 34RH tyrosine fluorescence quenching experiments, samples were prepared with the following buffer components: sterile filtered water, 1xPBS (137 mM NaCl, 2.7 mM KCl, 4.3 mM Na2HPO4, 1.4 mM KH2PO4), and 5% total DMSO. […] All samples for fluorescence measurements maintained a final 5% DMSO concentration.
# The samples were incubated for at least 15 min before fluorescence was measured. […] The fluorescence data were background corrected using buffer (for samples with only protein) or small molecule (for samples containing protein and 34RH) (Figure S4). The absorbance due to 34RH and protein at the excitation and emission wavelengths can suppress the observed fluorescence intensity to give rise to the inner filter effect. To account for this suppression, we corrected the fluorescence signals using Equation (3). This correction accounted for the fluorescence suppression due to the absorbance of both 34RH and the protein [47]. […]
# [10] = target: T7, MaxRH-N78E (Homo sapiens, UniProt P61244, K77E/M74V/N78E/Q72L/R75Q/R76A/Y73S); assay: Tyrosine fluorescence quenching titration; type: binding; details: MaxRH-N78E mutant
# T7 construct: 6xHis tag + TEV site (N, cleaved yes); made in house; host or cells: E. coli BL21(DE3) pLysS
# T7 sequence (P61244 whole entry Q72L/Y73S/M74V/R75Q/R76A/K77E/N78E): as the sequence (P61244 whole entry Q72L/Y73S/M74V/R75Q/R76A/K77E) above, with N78E counted along it
# Method: as §2
# (§3) For excess 34RH tyrosine fluorescence quenching experiments, samples were prepared with the following buffer components: sterile filtered water, 1xPBS (137 mM NaCl, 2.7 mM KCl, 4.3 mM Na2HPO4, 1.4 mM KH2PO4), and 5% total DMSO. The pH of the buffer was adjusted to 6 or 7.4 depending on the experiment performed. Three separate samples were prepared in 1xPBS and 5% total DMSO: one containing 50 μM 34RH alone, one containing 1 μM of protein and 50 μM 34RH, and one containing 1 μM protein alone. For the 34RH containing samples, the compound was delivered from a 1 mM DMSO stock. These samples were then serially diluted two-fold from 50 μM 34RH to 1.56 μM 34RH. All samples for fluorescence measurements maintained a final 5% DMSO concentration.
# (§4) The samples were incubated for at least 15 min before fluorescence was measured. The samples were excited at 274 nm, and the emission spectra were obtained from 285 to 340 nm using 5 nm excitation and 5 nm emission slits using a Horiba Fluoromax 4 fluorometer. The fluorescence data were background corrected using buffer (for samples with only protein) or small molecule (for samples containing protein and 34RH) (Figure S4). The absorbance due to 34RH and protein at the excitation and emission wavelengths can suppress the observed fluorescence intensity to give rise to the inner filter effect. To account for this suppression, we corrected the fluorescence signals using Equation (3). This correction accounted for the fluorescence suppression due to the absorbance of both 34RH and the protein [47]. (3) Fcorr=Fobs∗ 10^Aex+ Aem/2
# (§5) Here, the corrected fluorescence is Fcorr, the background-subtracted observed fluorescence is Fobs, and Aex and Aem are the total absorbance at the excitation and emission wavelengths, respectively. The amount of protein fluorescence quenched by 34RH at a particular concentration was calculated using Fcorr at λ = 304 nm (Equation (4)). (4) Fraction Quenched=1−Fcorr304nm of Protein +34RH/ Fcorr304nm of Protein only
# (§6) The quenching data were fit to a Langmuir binding isotherm using Equation (5), from which the dissociation constant (KD) was obtained. Here, Qmax describes the maximum fraction quenched, [L]T is the total 34RH concentration, and [P]T is the total protein concentration. The total concentration of the protein was 1 µM for all fluoresce experiments conducted at a constant protein concentration. (5) Fraction Quenched=Qmax∗([L]T+P]T+ KD−(L]T+P]T+ KD)^2−4 ∗ L]T ∗ P]T/2∗[L]T
# [11] = target: T3, MaxRH; assay: Tyrosine fluorescence quenching titration; type: binding; details: for Kd: 1 µM MaxRH, read-out: dissociation constant (KD)
# Method: as §2, §3, §4, §5, §6
# [12] = target: T8, Myc353–437 A401E (Homo sapiens, UniProt P01106, A416E); assay: Tyrosine fluorescence quenching titration; type: binding; details: Myc353–437 A401E mutant
# T8 construct: We constructed Myc353–437 A401E to determine if the same flanking residue would be permissive; 6xHis tag + TEV site (N, cleaved yes); made in house; host or cells: E. coli BL21(DE3) pLysS
# T8 sequence (P01106 368-452 A416E): as the sequence (P01106 368-452) above, with A49E counted along it
# Method: as §2, §3, §4, §5, §6
# [13] = target: T4, MaxRH-Y115F/Y123F; assay: Tyrosine fluorescence quenching titration; type: binding; details: 1 µM MaxRH-Y115F/Y123F
# Method: as §2, §3, §4, §5, §6
# [14] = target: T5, P22 Max; assay: Tyrosine fluorescence quenching titration; type: binding; details: 1 µM P22 Max
# Method: as §2, §3, §4, §5, §6
# [15] = target: T2, Myc402–412 peptide; assay: Tyrosine fluorescence quenching titration; type: binding
# Method: as §2, §3, §4, §5, §6
# [16] = target: T9, Myc353–437 E410N (Homo sapiens, UniProt P01106, E425N); assay: Tyrosine fluorescence quenching titration; type: binding; details: Myc353–437 E410N mutant
# T9 construct: 6xHis tag + TEV site (N, cleaved yes); made in house; host or cells: E. coli BL21(DE3) pLysS
# T9 sequence (P01106 368-452 E425N): as the sequence (P01106 368-452) above, with E58N counted along it
# Method: as §2, §3, §4, §5, §6
# [17] = target: T6, P21 Max; assay: Tyrosine fluorescence quenching titration; type: binding; details: 1 µM P21 Max, pH 7.4
# Method: as §2, §3, §4, §5, §6
# [18] = Dynamic light scattering (DLS) of 34RH; type: physicochemical; details: for DLS correlation function (nano-sized particles): 1xPBS, 5% DMSO, pH 7.4
# Method: The small molecule (Z)-4-((4-oxo-2-thioxothiazolidin-5-ylidene)methyl)benzoic acid (hereafter referred to as 34RH) was previously synthesized according to established procedures, and the structure was confirmed by ^1H and ^13C NMR (Figure S6) using a 400 MHz spectrometer. The dry compound was stored at 4 °C. Stock solutions (1 mM) of 34RH were made using either dimethyl sulfoxide (DMSO) or ethanol and stored at −20 °C. Fluorescence and dynamic light scattering (DLS) experiments were performed using DMSO, while circular dichroism (CD) was conducted using ethanol to avoid the high absorbance of DMSO at short wavelengths. DLS measurements were performed on 34RH using an LS Spectrophotometer (LS Instruments) at 25 °C (Figure S3). The dispersant viscosity was set for water. Samples were analyzed in 1xPBS (pH 7.4) and 5% total DMSO. The compound was serially diluted two-fold from 100 μM to a final concentration of 6.25 μM. Samples were placed into 5 mm cylindrical glass cuvettes (LS Instruments) and measured using a 600 nm laser at a 90° angle for 20 s. The data were analyzed using LS Spectrophotometer software provided by the manufacturer.
smiles,measurement,setting,value
"O=C1NC(=S)S/C1=C\c1ccc(C(=O)O)cc1 [34RH, (Z)-4-((4-oxo-2-thioxothiazolidin-5-ylidene)methyl)benzoic acid]",Kd,[1],5.9 ± 0.8 µM
same,effect on structural ensemble (CD),[2],does not exhibit perturbations to the structural ensemble
same,pKa,[3],5.3 ± 0.3
same,effect on average conformation (CD),[4],did not substantially alter the average conformation
same,effect on conformation (CD),[5]; pH 6,remaining disordered
same,effect on conformation (CD),[5]; pH 7.4,did not change the conformation
same,effect on conformation (CD),[6],remains disordered
same,effect on CD spectrum,[7],does not alter the CD
same,effect on CD spectrum,[8],no indication of perturbation
same,Kd,[9],3.9 ± 1.3 µM
same,binding by titratable tyrosine quenching,[10],complete loss of observable binding
same,Kd,[11]; pH 6,9.1 ± 3.9 µM
same,Kd,[11]; pH 7.4,23.4 ± 1.1 µM
same,affinity weaker than in the Myc context,"[11]; MaxRH vs Myc353–437, pH 7.4",about 6 fold
same,affinity weaker relative to the peptide,"[11]; MaxRH vs Myc402–412 peptide, pH 7.4",~2 fold
same,improvement of binding to MaxRH at pH 6,[11]; pH 6 vs pH 7.4,2.5 fold
same,binding by tyrosine quenching,[12],no detectable binding
same,Kd,[13],14.9 ± 1.9 µM
same,titratable tyrosine fluorescence quenching (binding),[14]; pH 6 (monomeric),no titratable quenching
same,titratable tyrosine fluorescence quenching (binding),[14]; pH 7.4,does not exhibit titratable quenching
same,"change in affinity, Myc402–412 peptide vs Myc353–437",[15],3 fold
same,difference in affinity between Myc353–437 and Myc402–412 contexts,[15],less than 0.7 kcal mol^−1
same,Kd,"[15]; 1 µM Myc402–412 peptide, excess 34RH, Langmuir binding isotherm",11.5 ± 1.2 µM
same,binding by tyrosine quenching,[16],eliminated binding
same,titratable tyrosine fluorescence quenching (binding),[17],no titratable quenching
same,DLS correlation function (nano-sized particles),[18]; 100 µM,a correlation was observed
same,DLS correlation function (nano-sized particles),[18]; concentrations below 50 µM,no correlation function
same,solubility based on dynamic light scattering,[18]; neutral pH,good solubility
